The values below come from patent publication US20260256816A1, “PHARMACEUTICAL COMPOSITION FOR PREVENTING OR TREATING BRAIN TUMOR” (ASTRION INC., priority 2023, published 2026).

One assay concerns EGFR. Briefly: Western blot of EGFR protein expression in glioblastoma cell line. It is filed as cell-based, human. Conditions: U87-MG, 48 hours; for expression of EGFR protein compared to the untreated control: 0, 8, 16, 32 μM, FIGS. 9A to 9D. The procedure:
(§1) It was determined whether the compound of the present invention affects the expression of ANO1 and EGFR proteins in a glioblastoma cell line. The human glioblastoma cell line U87-MG was seeded at a density of 1×10^6 cells in a 60 mm dish, and cultured for 24 hours, and the cells were then treated with the compound (AON-MG23-01 or AON-MG23-02; each at 0, 1, 2, and 4 μM) of the present invention, and cultured for 48 hours. The cultured cells were harvested and the harvested cells were lysed for Western blotting. An anti-ANO1 antibody (Abcam, ab53212), an anti-pEGFR antibody (Cell Signaling, #4407S), an anti-EGFR antibody (Cell Signaling, #4267S), and an anti-α-tubulin antibody (Santacruz, #SC-5286) were used as the antibodies for Western blotting. Protein concentration was quantified using the BSA method (a protein quantitation assay, a bovine serum albumin assay) (Pierce, Cat. 23225). After the cells were lysed, an equal amount (10 μg) of the proteins obtained from the lysed cells was subjected to 10% SDS-PAGE to separate the proteins depending on their molecular weights, transferred to a PVDF membrane (Bio-Rad), and then treated with a blocking buffer (5% skim milk in a Tris-buffered saline (TBS) buffer containing 0.1% Tween 20; TBS-T) at room temperature for an hour. Thereafter, the PVDF membrane was treated with the primary antibody, and reacted at 4° C. for 16 hours. […] The amount of each protein was quantified and analyzed using Image J software.
(§2) The inhibitory effects of the compound AON-MG23-02 of the present invention, the EGFR inhibitor Osimertinib, and the ANO1 inhibitor CaCCinh-A01 on the expression of ANO1, EGFR, and pEGFR proteins in a glioblastoma cell line were compared. […] Protein concentration was quantified using the BSA method (a protein quantitation assay, a bovine serum albumin assay) (Pierce, Cat. 23225). […] The amount of each protein was quantified and analyzed using Image J software. […]

Assay [1] relates to U87-MG cells. Briefly: Matrigel Transwell invasion assay (metastasis inhibition). It is filed as cell-based, human. Conditions: for degree of penetration into Matrigel compared to the untreated control: 24 hours. The procedure: A human glioblastoma cell line U87-MG was seeded at a density of 8×10^4 cells/well on Matrigel-coated filters (Transwell invasion chambers, Corning), and the cells were then treated with the compound (AON-MG23-01 or AON-MG23-02; each at 0, 1, 2, and 4 μM) of the present invention, and cultured at 37° C. in a CO2 incubator for 24 hours. After the culturing was completed, the cells were fixed and stained using the Diff-Quick Stain kit (Sysmex, Kobe, Japan). Images of the stained cells were taken under a microscope, the cells were counted using Image J software, and statistical analysis was then performed.
A human glioblastoma cell line U87-MG was seeded at a density of 6×10^4 cells/well on the top of a Matrigel-coated filter (Transwell invasion chambers, Corning), treated with 4 μM of the compound AON-MG23-02 of the present invention, 4 μM of the EGFR inhibitor Osimertinib, 100 μM of the ANO1 inhibitor CaCCinh-A01, or a combination of 4 μM of Osimertinib and 100 μM of CaCCinh-A01, and then cultured at 37° C. in a CO2 incubator for 16 hours. After the culturing was completed, the cells were fixed and stained using a Diff-Quick stain kit (Sysmex, Kobe, Japan). Images of the stained cells were taken under a microscope, the cells were counted using Image J software, and statistical analysis was then performed.
A human glioblastoma cell line U87-MG was seeded at a density of 8×10^4 cells/well on the top of a Matrigel-coated filter (Transwell invasion chambers, Corning), and then treated with 0, 8, 16, and 32 μM of each of the compound derivatives AON-MG23-05, AON-MG23-06, AON-MG23-07, and AON-MG23-08 of the present invention, and cultured at 37° C. in a CO2 incubator for 24 hours. After the culturing was completed, the cells were fixed and stained using a Diff-Quick stain kit (Sysmex, Kobe, Japan). Images of the stained cells were taken under a microscope, the cells were counted using Image J software, and statistical analysis was then performed.

The test system of another assay is ANO1. As to the kind of experiment: Western blot of ANO1 protein expression in glioblastoma cell line. It is filed as cell-based, human. Conditions: U87-MG, 48 hours; for expression of ANO1 protein compared to the untreated control: 0, 8, 16, 32 μM, FIGS. 9A to 9D. The procedure:
as §1, §2
Background: Immunoblotting shows a protein as a band on a membrane.

For assay [2], the system named is U87-MG cells. Briefly: Cell migration assay (SPLScar Block). Conditions: Homo sapiens, U-87 MG, 24 hours, FIG. 3, read-out: inhibition of cell migration compared to the untreated control. The assay is classed as cell-based. The procedure:
Human glioblastoma cell line U87-MG cells were seeded at a density of 8×10^4 cells/well on a SPLScar Block (SPL) plate and cultured for 24 hours. After 24 hours, the block was removed, and the cells were treated with the compound AON-MG23-01 or AON-MG23-02 of the present invention, and cultured at 37° C. in a CO2 incubator for 24 hours. The compound of the present invention was treated at concentrations of 0, 1, 2, and 4 μM. Images were taken before and after culture, and the distance of cell migration was measured using Image J software. Based on the results, whether the cell migration was inhibited was analyzed.

The test system of a further assay is pEGFR. As to the kind of experiment: Western blot of pEGFR protein expression in glioblastoma cell line. It is filed as cell-based, human. Conditions: U87-MG; 4 μM; 48 hours; vs 2 μM Osimertinib, 100 μM CaCCinh-A01, combination; FIGS. 8A, 8B. The procedure:
The inhibitory effects of the compound AON-MG23-02 of the present invention, the EGFR inhibitor Osimertinib, and the ANO1 inhibitor CaCCinh-A01 on the expression of ANO1, EGFR, and pEGFR proteins in a glioblastoma cell line were compared. A human glioblastoma cell line U87-MG was seeded at a density of 100×10^4 cells/dish in a 60 mm dish, and cultured for 24 hours. Thereafter, the cells were treated with 4 μM of AON-MG23-02, 2 μM of the EGFR inhibitor Osimertinib, 100 μM of the ANO1 inhibitor CaCCinh-A01, or a combination of 2 μM of Osimertinib and 100 μM of CaCCinh-A01, and cultured for 48 hours. The cultured cells were harvested and the harvested cells were lysed for Western blotting. An anti-ANO1 antibody (Abcam, ab53212), an anti-pEGFR antibody (Cell Signaling, #4407S), an anti-EGFR antibody (Cell Signaling, #4267S), and an anti-ACTIN antibody (sigma, #A2066) were used as antibodies for Western blotting. Protein concentration was quantified using the BSA method (a protein quantitation assay, a bovine serum albumin assay) (Pierce, Cat. 23225). […] The amount of each protein was quantified and analyzed using Image J software.

The test system of assay [3] is U87-MG cells. As to the kind of experiment: CCK assay, cell proliferation of human glioblastoma cells. It is filed as cell-based. Conditions: 0, 1, 2, 4 μM, 48 hours, FIG. 2. The procedure: Human glioblastoma cell line U87-MG cells were seeded at a density of 1×10^4 cells/well in a 96-well plate and cultured for 24 hours. Thereafter, the cells were treated with DMSO as a control and the compound AON-MG23-01 or AON-MG23-02 of the present invention, and then cultured for 48 hours. The compound of the present invention was treated at various concentrations of 0, 1, 2, and 4 μM. 10 μL of a CCK reagent was added and reacted for an hour, and the absorbance was then measured at 450 nm.

Setting [4] is: 0, 8, 16, 32 μM, FIGS. 10A, 10B.
Where [5] appears, read: 4 μM, vs 2 μM Osimertinib, 100 μM CaCCinh-A01, combination, FIGS. 8A, 8B.

In the case of `O=C1c2ccccc2CN1Cc1ccc(CCN(CCO)Cc2ccc3ccccc3c2)cc1` [AON-MG23-05, 2-(4-(2-((2-hydroxyethyl)(naphthalen-2-ylmethyl)amino)ethyl)benzyl)isoindolin-1-one], the “expression of EGFR protein compared to the untreated control” value in the assay on EGFR is “reduced expression”. Also, the “degree of penetration into Matrigel compared to the untreated control” value (shortened to “degree … compared to the untreated control”) in the assay with U87-MG cells [1] (setting [4]) is reported as “reduced degree of penetration into Matrigel”. Besides, the “expression of ANO1 protein compared to the untreated control” value with ANO1 is “reduced expression”.
For `COc1cc(N2CCC(N(C)C)CC2)ccc1Nc1ncc(Cl)c(Nc2ccccc2N(C2CC2)S(C)(=O)=O)n1` [AON-MG23-02, N-(2-((5-chloro-2-((4-(4-(dimethylamino)piperidin-1-yl)-2-methoxyphenyl)amino)pyrimidin-4-yl)amino)phenyl)-N-cyclopropylmethanesulfonamide], in the assay with U87-MG cells [2], the inhibition at 4 µM was more than 65%. For the same compound, in the assay on EGFR (setting [5]), the “expression of EGFR protein compared to untreated control, EGFR inhibitor, ANO1 inhibitor and combination groups” value is given as “reduces the expression”. The “degree … compared to the untreated control” value in the assay on U87-MG cells [1] (0, 1, 2, 4 μM, FIG. 4) is reported as “reduced degree of penetration into Matrigel”. The “degree of penetration into Matrigel compared to untreated control, EGFR inhibitor-treated group and ANO1 inhibitor-treated group” value with U87-MG cells [1] (4 μM, 16 hours, vs 4 μM Osimertinib, 100 μM CaCCinh-A01, FIGS. 7A, 7B) is “reduced degree of penetration into Matrigel”. Further, in the assay with ANO1 (setting [5]), the “expression of ANO1 protein compared to untreated control, EGFR inhibitor, ANO1 inhibitor and combination groups” value is given as “reduces the expression”. In addition, the “expression of pEGFR protein compared to untreated control, EGFR inhibitor, ANO1 inhibitor and combination groups” value with pEGFR is recorded as “reduces the expression”. Also, the “proliferation of U87-MG cells (CCK assay)” value in the assay with U87-MG cells [3] is “inhibits the proliferation of U87-MG cells”.
Regarding `COc1cc(N2CCC(N3CCN(C)CC3)CC2)ccc1Nc1ncc(Cl)c(Nc2ccccc2N(C2CC2)S(C)(=O)=O)n1` [AON-MG23-01, N-(2-((5-chloro-2-((2-methoxy-4-(4-(4-methylpiperazin-1-yl)piperidin-1-yl)phenyl)amino)pyrimidin-4-yl)amino)phenyl)-N-cyclopropylmethanesulfonamide], in the assay with U87-MG cells [2], the inhibition at 4 µM is more than 65%. Also, the “degree … compared to the untreated control” value in the assay with U87-MG cells [1] (0, 1, 2, 4 μM, FIG. 4) is “reduced degree of penetration into Matrigel”. Besides, in the assay with U87-MG cells [3], the “proliferation of U87-MG cells (CCK assay)” value is on record as “inhibits the proliferation of U87-MG cells”.
On to `CCN(Cc1ccc2ccccc2c1)CC(O)c1ccc(CN2Cc3ccccc3C2=O)cc1` (stereo not drawn) [AON-MG23-06, 2-(4-(2-(ethyl(naphthalen-2-ylmethyl)amino)-1-hydroxyethyl)benzyl)isoindolin-1-one], for which the “degree … compared to the untreated control” value with U87-MG cells [1] (setting [4]) was “reduced degree of penetration into Matrigel”.
For the compound `O=C1c2ccccc2CN1Cc1ccc(CCP(=O)(Cc2ccc3ccccc3c2)Cc2ccc3ccccc3c2)cc1` [AON-MG23-07, 2-(4-(2-(bis(naphthalen-2-ylmethyl)phosphoryl)ethyl)benzyl)isoindolin-1-one], the “degree … compared to the untreated control” value in the assay with U87-MG cells [1] (setting [4]) was “reduced degree of penetration into Matrigel”.
With `NC(=O)N(CCc1ccc(CN2Cc3ccccc3C2=O)cc1)Cc1ccc2ccccc2c1` [AON-MG23-08, 1-(naphthalen-2-ylmethyl)-1-(4-((1-oxoisoindolin-2-yl)methyl)phenethyl)urea], in the assay with EGFR, the “expression of EGFR protein compared to the untreated control” value is on record as “reduced expression”. In the assay with U87-MG cells [1] (setting [4]), the “degree … compared to the untreated control” value is “reduced degree of penetration into Matrigel”. The “expression of ANO1 protein compared to the untreated control” value with ANO1 is “reduced expression”.
